Earlier results, collected in patent US20100221326A1, “PHARMACEUTICAL COMPOSITIONS FOR ORAL USE FOR TREATING PATIENTS AFFECTED BY OBESITY” (MADER S.R.L., priority 2007, published 2010).

Conditions: raw material

- degradation of the active principle (25° C., 65% RH, after 7 days' storage): 15%
- degradation (40° C., RH 75%): greater than 40%
SMILES: CCCCCCCCCCC[C@@H](C[C@@H]1OC(=O)[C@H]1CCCCCC)OC(=O)[C@H](CC(C)C)NC=O [Orlistat]
